The numbers were not newly measured in patent publication US20240350678A1, “SYSTEMS AND METHODS FOR GENERATION OF HYPERPOLARIZED MATERIALS” (NVISION IMAGING TECHNOLOGIES GMBH, priority 2021, published 2024), which cites them from elsewhere.

Like-named read-outs stand apart in the source and are kept apart here.

`CC(=O)O` [acetic acid]: the “maximal mole fraction of acetic acid in n-heptane” value is, setting by setting: (at 14.8° C.) 0.935; (at −29.2° C.) 0.02.
